Measured values: PubChem BioAssay (NCI)
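Protocol summary: plate cells (96-well), add compound at 5 concentrations, incubate 48 h, interpolate endpoints linearly. At the GI50, growth is halved. TGI denotes the concentration required for complete inhibition of growth.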

Experiments:
Experiment in all cases: DTP human tumour cell line panel, 48 h
A549 NSCLC = test system: A549 NSCLC
COLO 205 colon = test system: COLO 205 colon
HOP-62 NSCLC = test system: HOP-62 NSCLC
HOP-92 NSCLC = test system: HOP-92 NSCLC
MALME-3M melanoma = test system: MALME-3M melanoma
OVCAR-5 ovarian = test system: OVCAR-5 ovarian
SK-MEL-28 melanoma = test system: SK-MEL-28 melanoma
SN12C renal = test system: SN12C renal
TK-10 renal = test system: TK-10 renal
MDA-MB-231 breast = test system: MDA-MB-231 breast

## N#C/C(=C/c1cccnc1)C(=O)c1ccccc1
A549 NSCLC
  TGI: > 100 µM
COLO 205 colon
  TGI: > 100 µM
HOP-62 NSCLC
  TGI: > 100 µM
HOP-92 NSCLC
  TGI: > 100 µM
MALME-3M melanoma
  TGI: > 100 µM
OVCAR-5 ovarian
  TGI: > 100 µM
SK-MEL-28 melanoma
  TGI: > 100 µM
SN12C renal
  TGI: > 100 µM
TK-10 renal
  TGI: > 100 µM

## Cc1cc(S(=O)(=O)Nc2nc3ccsc3c(=O)n2Cc2ccco2)c(S)cc1Cl
A549 NSCLC
  GI50: > 100 µM
  TGI: > 100 µM
COLO 205 colon
  GI50: > 100 µM
  TGI: > 100 µM
HOP-62 NSCLC
  GI50: > 100 µM
  TGI: > 100 µM
HOP-92 NSCLC
  GI50: > 100 µM
  TGI: > 100 µM
MALME-3M melanoma
  GI50: > 100 µM
  TGI: > 100 µM
MDA-MB-231 breast
  GI50: > 100 µM
  TGI: > 100 µM
OVCAR-5 ovarian
  GI50: > 100 µM
  TGI: > 100 µM
SK-MEL-28 melanoma
  GI50: > 100 µM
  TGI: > 100 µM
SN12C renal
  GI50: > 100 µM
  TGI: > 100 µM
TK-10 renal
  GI50: > 100 µM
  TGI: > 100 µM

## O=C1c2ccccc2S(=O)(=O)N1CSC(=S)N1CCCC1
A549 NSCLC
  GI50: > 88.5 µM
  TGI: > 100 µM
COLO 205 colon
  GI50: > 100 µM
  TGI: > 100 µM
HOP-62 NSCLC
  GI50: > 100 µM
  TGI: > 100 µM
HOP-92 NSCLC
  GI50: > 100 µM
  TGI: > 100 µM
MALME-3M melanoma
  GI50: > 100 µM
  TGI: > 100 µM
MDA-MB-231 breast
  GI50: > 100 µM
  TGI: > 100 µM
OVCAR-5 ovarian
  GI50: > 100 µM
  TGI: > 100 µM
SK-MEL-28 melanoma
  GI50: > 100 µM
  TGI: > 100 µM
SN12C renal
  GI50: > 100 µM
  TGI: > 100 µM
TK-10 renal
  GI50: > 100 µM
  TGI: > 100 µM

## Cc1ccc(-c2ccc(Nc3c4ccccc4nc4ccccc34)cc2)cn1
A549 NSCLC
  TGI: 10.3 µM
COLO 205 colon
  TGI: 12.2 µM
HOP-62 NSCLC
  TGI: 3.77 µM
HOP-92 NSCLC
  TGI: 3.28 µM
OVCAR-5 ovarian
  TGI: 69.5 µM
SK-MEL-28 melanoma
  TGI: 9.18 µM
SN12C renal
  TGI: 15.3 µM

## N#Cc1c[nH]n2ccnc12
A549 NSCLC
  TGI: > 100 µM
COLO 205 colon
  TGI: > 100 µM
HOP-62 NSCLC
  TGI: > 100 µM
MDA-MB-231 breast
  TGI: > 100 µM
OVCAR-5 ovarian
  TGI: > 100 µM
SK-MEL-28 melanoma
  TGI: > 100 µM
SN12C renal
  TGI: > 100 µM
TK-10 renal
  TGI: > 100 µM

## O=C(CC/C(C/C(=N/O)c1ccc(F)cc1)=N/O)N(Cc1ccccc1)Cc1ccccc1
A549 NSCLC
  TGI: > 100 µM
COLO 205 colon
  TGI: > 100 µM
HOP-62 NSCLC
  TGI: > 100 µM
HOP-92 NSCLC
  TGI: > 100 µM
MALME-3M melanoma
  TGI: > 100 µM
OVCAR-5 ovarian
  TGI: > 100 µM
SK-MEL-28 melanoma
  TGI: > 100 µM
SN12C renal
  TGI: > 100 µM
TK-10 renal
  TGI: > 100 µM

## COc1c2ccccc2c(O)c2c(=O)c(C(=O)O)cn(C)c12
A549 NSCLC
  GI50: > 100 µM
  TGI: > 100 µM
COLO 205 colon
  GI50: > 100 µM
  TGI: > 100 µM
HOP-62 NSCLC
  GI50: > 100 µM
  TGI: > 100 µM
HOP-92 NSCLC
  GI50: 56.9 µM
  TGI: > 100 µM
MDA-MB-231 breast
  GI50: > 100 µM
  TGI: > 100 µM
OVCAR-5 ovarian
  GI50: > 100 µM
  TGI: > 100 µM
SK-MEL-28 melanoma
  GI50: 65 µM
  TGI: > 100 µM

## CC1C=C(OC(=O)c2ccccc2)C(=O)C(n2cc(F)c(=O)n(C(=O)c3ccccc3)c2=O)O1 (stereo unspecified)
A549 NSCLC
  TGI: > 100 µM
COLO 205 colon
  TGI: 62.1 µM
HOP-62 NSCLC
  TGI: > 100 µM
HOP-92 NSCLC
  TGI: > 100 µM
MALME-3M melanoma
  TGI: 95.7 µM
SK-MEL-28 melanoma
  TGI: > 100 µM
SN12C renal
  TGI: > 100 µM
TK-10 renal
  TGI: > 100 µM

## CN(C)CCNC(=O)c1cccc2cc3ccccc3nc12
COLO 205 colon
  GI50: 0.779 µM
  TGI: 3.55 µM
HOP-62 NSCLC
  GI50: 0.961 µM
  TGI: 6.68 µM
HOP-92 NSCLC
  GI50: 1.24 µM
  TGI: 5.41 µM
MALME-3M melanoma
  GI50: 1.4 µM
  TGI: 3.34 µM
MDA-MB-231 breast
  GI50: 2.35 µM
  TGI: 9.65 µM
OVCAR-5 ovarian
  GI50: 2.27 µM
  TGI: > 24.3 µM
SK-MEL-28 melanoma
  GI50: 1.97 µM
  TGI: 4.41 µM
SN12C renal
  GI50: 1.84 µM
  TGI: > 19.9 µM
TK-10 renal
  GI50: 1.23 µM
  TGI: 4.08 µM

## Cc1ccc(S(=O)(=O)N2CCC3(C(/C=C/c4ccccc4)=Nc4ccccc43)C2c2ccccc2)cc1 (stereo unspecified)
A549 NSCLC
  TGI: > 100 µM
COLO 205 colon
  TGI: > 100 µM
HOP-62 NSCLC
  TGI: > 100 µM
HOP-92 NSCLC
  TGI: > 100 µM
MALME-3M melanoma
  TGI: > 100 µM
OVCAR-5 ovarian
  TGI: > 100 µM
SK-MEL-28 melanoma
  TGI: > 100 µM
SN12C renal
  TGI: > 100 µM
TK-10 renal
  TGI: > 100 µM

## O=C1CC2CCCCC2=C1O (stereo unspecified)
A549 NSCLC
  TGI: > 100 µM
COLO 205 colon
  TGI: > 100 µM
HOP-62 NSCLC
  TGI: > 100 µM
MALME-3M melanoma
  TGI: > 100 µM
OVCAR-5 ovarian
  TGI: > 100 µM
SK-MEL-28 melanoma
  TGI: > 100 µM
SN12C renal
  TGI: > 100 µM
TK-10 renal
  TGI: > 100 µM

## CN(C)c1ccc(/C=C2\CNC/C(=C\c3ccc(N(C)C)cc3)C2=O)cc1
A549 NSCLC
  TGI: 56.5 µM
COLO 205 colon
  TGI: > 100 µM
HOP-62 NSCLC
  TGI: > 100 µM
HOP-92 NSCLC
  TGI: 55.2 µM
MALME-3M melanoma
  TGI: > 100 µM
OVCAR-5 ovarian
  TGI: > 100 µM
SK-MEL-28 melanoma
  TGI: 42 µM
SN12C renal
  TGI: 75.4 µM
TK-10 renal
  TGI: > 100 µM

## Cc1cc(N(CCC#N)CCC#N)ccc1/C=C(\NC(=O)/C=C/c1ccccc1)NC(=O)Nc1ccc(Cl)cc1
A549 NSCLC
  TGI: > 100 µM
COLO 205 colon
  TGI: > 100 µM
HOP-92 NSCLC
  TGI: > 100 µM
MALME-3M melanoma
  TGI: > 100 µM
OVCAR-5 ovarian
  TGI: > 100 µM
SK-MEL-28 melanoma
  TGI: > 100 µM
SN12C renal
  TGI: > 100 µM

## N#C/C(=C\c1ccc(Br)cc1)n1nnc2cccc(F)c21
A549 NSCLC
  GI50: 2.8 µM
  TGI: 13.2 µM
COLO 205 colon
  GI50: 1.98 µM
  TGI: 5.02 µM
HOP-62 NSCLC
  GI50: 2.38 µM
  TGI: 8.49 µM
MDA-MB-231 breast
  GI50: 1.63 µM
  TGI: 3.46 µM
OVCAR-5 ovarian
  GI50: 1.77 µM
  TGI: 3.48 µM
SK-MEL-28 melanoma
  GI50: 1.87 µM
  TGI: 3.97 µM
SN12C renal
  GI50: 1.55 µM
  TGI: 3.14 µM
TK-10 renal
  GI50: 1.91 µM
  TGI: 3.55 µM

## CCCCCCCCCCCCCC/C(C(=O)OC)=C(/O)C(=O)OCC
A549 NSCLC
  TGI: 64.9 µM
COLO 205 colon
  TGI: > 100 µM
HOP-62 NSCLC
  TGI: > 100 µM
HOP-92 NSCLC
  TGI: 54.5 µM
MALME-3M melanoma
  TGI: > 100 µM
OVCAR-5 ovarian
  TGI: 70.1 µM
SK-MEL-28 melanoma
  TGI: 50.8 µM
SN12C renal
  TGI: > 100 µM
TK-10 renal
  TGI: > 100 µM

## COc1ccc(NC(=O)C(=O)NNC(=O)c2sc(NNC(C)=O)nc2C)c([N+](=O)[O-])c1
A549 NSCLC
  TGI: > 100 µM
COLO 205 colon
  TGI: > 100 µM
HOP-62 NSCLC
  TGI: > 100 µM
HOP-92 NSCLC
  TGI: > 100 µM
MALME-3M melanoma
  TGI: > 100 µM
OVCAR-5 ovarian
  TGI: > 100 µM
SK-MEL-28 melanoma
  TGI: > 100 µM
SN12C renal
  TGI: > 100 µM
TK-10 renal
  TGI: > 100 µM

## CC1CCCC(C(O)CC2CC(=O)N(c3ccccc3)C(=O)C2)C1=O (stereo unspecified)
A549 NSCLC
  TGI: > 100 µM
COLO 205 colon
  TGI: > 100 µM
HOP-62 NSCLC
  TGI: > 100 µM
HOP-92 NSCLC
  TGI: > 100 µM
MALME-3M melanoma
  TGI: > 100 µM
OVCAR-5 ovarian
  TGI: > 100 µM
SK-MEL-28 melanoma
  TGI: > 100 µM
SN12C renal
  TGI: > 100 µM
TK-10 renal
  TGI: > 100 µM

## CC(=O)O[C@H]1[C@@H]2[C@@H]3[C@@H](C[C@H]1C)[C@@H](C)CO[C@@]1(C)CC/C=C(/C)C[C@@H]2O[C@@H]31
A549 NSCLC
  TGI: > 100 µM
COLO 205 colon
  TGI: > 100 µM
HOP-62 NSCLC
  TGI: > 100 µM
HOP-92 NSCLC
  TGI: > 100 µM
MALME-3M melanoma
  TGI: > 100 µM
OVCAR-5 ovarian
  TGI: > 100 µM
SK-MEL-28 melanoma
  TGI: > 100 µM
SN12C renal
  TGI: > 100 µM
TK-10 renal
  TGI: > 100 µM

## CC1=C(C(=O)Nc2ccccc2C)C(c2ccc([N+](=O)[O-])cc2)C(C(=O)Nc2ccccc2C)=C(C)N1
A549 NSCLC
  TGI: > 100 µM
COLO 205 colon
  TGI: > 100 µM
HOP-62 NSCLC
  TGI: > 100 µM
MALME-3M melanoma
  TGI: > 100 µM
OVCAR-5 ovarian
  TGI: > 100 µM
SK-MEL-28 melanoma
  TGI: > 100 µM
SN12C renal
  TGI: > 100 µM
TK-10 renal
  TGI: > 100 µM
